Usually IC50 stands for the concentration that gives 50% inhibition.

Eleven molecules from patent US12600721B2, “TYK2 inhibitors and uses thereof” (Sudo Biosciences Limited, priority 2021, dated 2026) can be followed below.

Experiment [1] relates to TYK2 Pseudokinase (JH2). The experiment can be described thus: HEK-Blue IL-23 reporter assay (SEAP) for profiling TYK2 pseudokinase (JH2) inhibition. It is filed as cell-based. As to conditions: HEK-Blue IL-23 cells, 10 ng/mL human recombinant IL-23, SEAP reporter; read-out: IL23 IC50 (TYK2 inhibitory activity). As for the experimental part:
(§1) HEK-Blue™ IL-23 and IFNα/β cells with a stably-integrated cytokine receptor and STAT3 or STAT1 express STAT-inducible secreted embryonic alkaline phosphatase (SEAP) reporter gene upon cytokine stimulation. These cells are plated in DMEM (Gibco) containing 10% heat-inactivated FBS (Gibco) and 100 U/mL PenStrep (Gibco) at 37° C. under 5% CO2 conditions for 20-22 hours. The cells are then pretreated with serially diluted test compounds for 60 min prior to stimulation with either 10 ng/mL human recombinant IL-23 (Miltenyl Biotech) or 1 ng/mL human recombinant IFNα (InvivoGen) for 22-24 hours for IL-23 or 16-18 h for IFNα. SEAP induction is measured using the QUANTI Blue™ Solution (InvivoGen) according to the manufacturer's instructions.

Experiment [2] relates to TYK2 Pseudokinase (JH2). The experiment in a line: HEK-Blue IFNα/β reporter assay (SEAP) for profiling TYK2 pseudokinase (JH2) inhibition. It is filed as cell-based. The following applies: HEK-Blue IFNα/β cells, 1 ng/mL human recombinant IFNα, read-out: IFNα IC50 (TYK2 inhibitory activity). As for the experimental part:
as §1
(A reporter such as luciferase makes a cellular process visible.)

Experiment [3] deals with T1, TYK2-JH1 (Homo sapiens, UniProt P29597).
T1 construct: using a recombinant purified His or GST-tagged catalytic domain for each enzyme; made in house
T1 sequence (P29597 897-1176 limits assumed): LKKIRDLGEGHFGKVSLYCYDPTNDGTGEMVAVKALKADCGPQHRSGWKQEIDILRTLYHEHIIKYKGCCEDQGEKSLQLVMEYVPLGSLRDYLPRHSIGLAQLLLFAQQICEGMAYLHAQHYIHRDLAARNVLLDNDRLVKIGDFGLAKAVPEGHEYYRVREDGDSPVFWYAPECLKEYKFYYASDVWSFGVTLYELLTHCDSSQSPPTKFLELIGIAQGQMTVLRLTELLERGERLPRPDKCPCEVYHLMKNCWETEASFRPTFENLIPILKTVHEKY
The experiment can be described thus: HTRF-based selectivity assay, TYK2 catalytic domain. It is filed as biochemical. The following applies: kinase domain (JH1), 20 μM ATP. As for the experimental part: (§2) The ability of compounds to inhibit the activity of JAK1, JAK2, JAK3 and TYK2 is measured using a recombinant purified His or GST-tagged catalytic domain for each enzyme (JAK1, JAK2 and TYK2 are generated in-house; JAK3 was purchased from Carna biosciences, Cat #08-046) in an HTRF format biochemical assay. The reactions employs a commercial peptide substrate from Cisbio (Cat #62TK0PEC). The basic assay protocol is as follows: first, 2.5 μL of diluted compounds (4×) in DMSO are dispensed into a 384-well Optiplate. Next, 2.5 μL of enzyme (final concentrations for enzymes are: TYK2-700 ng/mL, JAK1-80.6 ng/ml, JAK2-2.1 ng/ml and JAK3-171.8 ng/mL) is added and incubated at RT for 5-20 min. Finally, 5 μl of mixture of 2×ATP [Final concentration 20 μM for TYK2, 21.43 μM for JAK1, 14.7 μM for JAK2 and 2.12 μM for JAK3]+2× Substrate [Final concentration 217 nM for TYK2, 454.7 nM for JAK1, 200 nM for JAK2 and 257.4 nM for JAK3] is added to 384 well Optiplate. Composition of Kinase assay buffer used in the assay is as follows: HEPES 50 mM, EGTA 1 mM, MgCl2 10 mM, DTT 2 mM, Tween-20 0.01% and water. Then the plates are shaken and then incubated at 26.5° C. for 60 min.

In experiment [4] the target is T2, JAK1-JH1 (Homo sapiens, UniProt P23458).
T2 construct: using a recombinant purified His or GST-tagged catalytic domain for each enzyme; made in house
T2 sequence (P23458 875-1153 limits assumed): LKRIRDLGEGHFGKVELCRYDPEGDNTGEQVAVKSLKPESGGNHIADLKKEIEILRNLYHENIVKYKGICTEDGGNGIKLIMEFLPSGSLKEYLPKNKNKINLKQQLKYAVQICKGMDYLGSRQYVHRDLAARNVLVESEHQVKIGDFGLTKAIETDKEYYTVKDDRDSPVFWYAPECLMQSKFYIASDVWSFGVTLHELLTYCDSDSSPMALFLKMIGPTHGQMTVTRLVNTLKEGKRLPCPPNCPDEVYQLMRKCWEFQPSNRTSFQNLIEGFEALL
The experiment can be described thus: HTRF-based selectivity assay, JAK1 catalytic domain. It is filed as biochemical. As to conditions: kinase domain (JH1), 21.43 μM ATP. As for the experimental part:
as §2
A general note: TR-FRET usually uses a lanthanide donor and a delayed reading to cut background.

Experiment [5] addresses T3, JAK2-JH1 (Homo sapiens, UniProt O60674).
T3 construct: using a recombinant purified His or GST-tagged catalytic domain for each enzyme; made in house
The experiment can be described thus: HTRF-based selectivity assay, JAK2 catalytic domain. It is filed as biochemical. As to conditions: kinase domain (JH1), 14.7 μM ATP. As for the experimental part:
as §2

Experiment [6] concerns the target T4, JAK3-JH1 (Homo sapiens, UniProt P52333).
T4 construct: using a recombinant purified His or GST-tagged catalytic domain for each enzyme; purchased Carna biosciences 08-046
The experiment can be described thus: HTRF-based selectivity assay, JAK3 catalytic domain. It is filed as biochemical. The following applies: kinase domain (JH1), 2.12 μM ATP. The procedure: as §2

For experiment [7], the system named is HEK-Blue IL-2 reporter cells. The experiment can be described thus: HEK-Blue IL-2 reporter assay (SEAP) for determining selectivity. It is filed as cell-based. As to conditions: HEK-Blue IL-2 cells, 4 ng/ml human recombinant IL-2, SEAP reporter. As for the experimental part: (§3) HEK-Blue™ IL-2 and IFNγ reporter cells with a stably-integrated cytokine receptor and STAT5 or STAT1 express STAT-inducible secreted embryonic alkaline phosphatase (SEAP) reporter gene upon cytokine stimulation. These cells were plated in DMEM (Gibco) containing 10% heat-inactivated FBS (Gibco) and 100 U/mL PenStrep (Gibco) at 37° C. under 5% CO2 conditions for 20-22 hours. The cells were then pretreated with serially diluted test compounds for 60 min prior to stimulation with either 4 ng/ml human recombinant IL-2 (Miltenyl Biotech) or 50 ng/ml human recombinant IFNγ (InvivoGen) for 24 hours. SEAP induction was measured using the QUANTI-Blue™ Solution (InvivoGen) according to the manufacturer's instructions.

Experiment [8] relates to HEK-Blue IFNγ reporter cells. The experiment can be described thus: HEK-Blue IFNγ reporter assay (SEAP) for determining selectivity. As to conditions: 50 ng/ml human recombinant IFNγ, read-out: IFN-γ IC50 (SEAP selectivity). It is filed as cell-based. As for the experimental part: as §3

T3 sequence (O60674 849-1124 limits assumed): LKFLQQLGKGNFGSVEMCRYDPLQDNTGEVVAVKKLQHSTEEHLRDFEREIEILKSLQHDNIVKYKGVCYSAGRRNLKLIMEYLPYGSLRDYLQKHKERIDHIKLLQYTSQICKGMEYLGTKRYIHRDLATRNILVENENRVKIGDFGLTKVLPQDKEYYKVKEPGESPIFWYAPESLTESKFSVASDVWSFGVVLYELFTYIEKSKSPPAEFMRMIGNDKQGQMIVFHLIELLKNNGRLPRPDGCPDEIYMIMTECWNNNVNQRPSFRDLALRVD
T4 sequence (P52333 822-1111 limits assumed): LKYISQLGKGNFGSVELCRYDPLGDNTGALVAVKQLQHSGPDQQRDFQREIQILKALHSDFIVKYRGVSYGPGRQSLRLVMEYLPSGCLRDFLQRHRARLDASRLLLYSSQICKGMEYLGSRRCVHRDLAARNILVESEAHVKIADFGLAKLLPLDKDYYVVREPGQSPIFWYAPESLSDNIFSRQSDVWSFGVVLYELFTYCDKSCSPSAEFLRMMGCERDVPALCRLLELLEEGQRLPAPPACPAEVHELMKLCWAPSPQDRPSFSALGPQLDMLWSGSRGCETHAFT

As to `[2H]C([2H])([2H])NC(=O)c1nnc(NC(=O)C2CC2)cc1Nc1cccc2c1N(C)Cc1cccnc1-2` [Compound 1, 6-(cyclopropanecarboxamido)-N-(methyl-d3)-4-((6-methyl-5,6-dihydrobenzo[h][1,6]naphthyridin-7-yl)amino)pyridazine-3-carboxamide], the IC50 is below 30 nM in experiment [1]; below 30 nM in experiment [2]; above 1000 nM in experiment [3]; above 1000 nM in experiment [4]; above 1000 nM in experiment [5]; above 1000 nM in experiment [6]. Also, the half-inhibitory concentration (IC50) in experiment [7] and in experiment [8] was above 1000 nM throughout.
Take `[2H]C([2H])([2H])NC(=O)c1nnc(Nc2ccc(F)cn2)cc1Nc1cccc2c1N(C)Cc1cccnc1-2` [Compound 2, 6-((5-fluoropyridin-2-yl)amino)-N-(methyl-d3)-4-((6-methyl-5,6-dihydrobenzo[h][1,6]naphthyridin-7-yl)amino)pyridazine-3-carboxamide]: the IC50 in experiment [1] was below 30 nM; in experiment [2] it was below 30 nM; in experiment [3], above 1000 nM; in experiment [4], above 1000 nM; in experiment [5] it was above 1000 nM; in experiment [6] it was above 1000 nM. Also, the IC50 in experiment [7] and in experiment [8] was above 1000 nM each time.
Take `[2H]C([2H])([2H])NC(=O)c1cnc(NC(=O)C2CC2)cc1Nc1cccc2c1N(C)Cc1cccnc1-2` [Compound 3, 6-(cyclopropanecarboxamido)-N-(methyl-d3)-4-((6-methyl-5,6-dihydrobenzo[h][1,6]naphthyridin-7-yl)amino)nicotinamide]: the IC50 in experiment [1] was below 30 nM; in experiment [2], below 30 nM; in experiment [3], above 1000 nM; in experiment [4], above 1000 nM; in experiment [5] it was above 1000 nM; in experiment [6] it was above 1000 nM. Besides, the IC50 in experiment [7] and in experiment [8] was above 1000 nM each time.
As for `[2H]C([2H])([2H])NC(=O)c1cnc(NC(=O)C2CC2)cc1Nc1cccc2c1N(C)Cc1cncnc1-2` [Compound 4, 6-(cyclopropanecarboxamido)-N-(methyl-d3)-4-((6-methyl-5,6-dihydropyrimido[5,4-c]quinolin-7-yl)amino)nicotinamide], the IC50 in experiment [1] was below 30 nM; in experiment [2], below 30 nM; in experiment [3] it was above 1000 nM; in experiment [4], 300 to 1000 nM; in experiment [5], above 1000 nM; in experiment [6], above 1000 nM. For the same molecule, the IC50 in experiment [7] and in experiment [8] was above 1000 nM throughout.
As for `[2H]C([2H])([2H])NC(=O)c1cnc(NC(=O)C2CC2)cc1Nc1cccc2c1N(C)Cc1cc(F)cnc1-2` [Compound 5, 6-(cyclopropanecarboxamido)-4-((3-fluoro-6-methyl-5,6-dihydrobenzo[h][1,6]naphthyridin-7-yl)amino)-N-(methyl-d3)nicotinamide], the IC50 is below 30 nM in experiment [1]; below 30 nM in experiment [2]; above 1000 nM in experiment [3]; above 1000 nM in experiment [4]; above 1000 nM in experiment [5]; above 1000 nM in experiment [6]. For the same molecule, the IC50 in experiment [7] and in experiment [8] was above 1000 nM each time.
In the case of `[2H]C([2H])([2H])NC(=O)c1nnc(NC(=O)C2CC2)cc1Nc1cccc2c1N(C)Cc1cncnc1-2` [Compound 6, 6-(cyclopropanecarboxamido)-N-(methyl-d3)-4-((6-methyl-5,6-dihydropyrimido[5,4-c]quinolin-7-yl)amino)pyridazine-3-carboxamide], the IC50 in experiment [1] is below 30 nM; in experiment [2], below 30 nM; in experiment [3] it was above 1000 nM; in experiment [4], 300 to 1000 nM; in experiment [5], above 1000 nM; in experiment [6] it was above 1000 nM. Also, the half-inhibitory concentration (IC50) was above 1000 nM in experiment [7] and 30 to 300 nM in experiment [8].
Turning to `[2H]C([2H])([2H])NC(=O)c1nnc(NC(=O)C2CC2)cc1Nc1cccc2c1N(C)Cc1cc(F)cnc1-2` [Compound 7, 6-(cyclopropanecarboxamido)-4-((3-fluoro-6-methyl-5,6-dihydrobenzo[h][1,6]naphthyridin-7-yl)amino)-N-(methyl-d3)pyridazine-3-carboxamide], the IC50 in experiment [1] is below 30 nM; in experiment [2] it was 30 to 300 nM; in experiment [3], above 1000 nM; in experiment [4], above 1000 nM; in experiment [5], above 1000 nM; in experiment [6], above 1000 nM. The results for the IC50 in experiment [7] and in experiment [8] were 300 to 1000 nM and 30 to 300 nM, respectively.
Take `[2H]C([2H])([2H])NC(=O)c1cnc(NC(=O)C2CC2)cc1Nc1cccc2c1N(C)Cc1nccnc1-2` [Compound 8, 6-(cyclopropanecarboxamido)-N-(methyl-d3)-4-((6-methyl-5,6-dihydropyrazino[2,3-c]quinolin-7-yl)amino)nicotinamide]: the IC50 in experiment [1] is below 30 nM; in experiment [2], below 30 nM; in experiment [3], above 1000 nM; in experiment [4] it was above 1000 nM; in experiment [5], above 1000 nM; in experiment [6] it was above 1000 nM. Also, the IC50 in experiment [7] was above 1000 nM; in experiment [8] it was 30 to 300 nM.
As to `[2H]C([2H])([2H])NC(=O)c1nnc(NC(=O)C2CC2)cc1Nc1cccc2c1N(C)Cc1nccnc1-2` [Compound 16, 6-(cyclopropanecarboxamido)-N-(methyl-d3)-4-((6-methyl-5,6-dihydropyrazino[2,3-c]quinolin-7-yl)amino)pyridazine-3-carboxamide], the IC50 in experiment [1] was below 30 nM; in experiment [2], below 30 nM; in experiment [3], above 1000 nM; in experiment [4], above 1000 nM; in experiment [5], above 1000 nM; in experiment [6], above 1000 nM. For the same molecule, the IC50 is above 1000 nM in experiment [7] and 30 to 300 nM in experiment [8].
With `[2H]C([2H])([2H])NC(=O)c1cnc(NC(=O)C2CC2)cc1Nc1cccc2c1N(C)C([2H])([2H])c1ccc(C)nc1-2` [Compound 24, 6-(cyclopropanecarboxamido)-4-((2,6-dimethyl-5,6-dihydrobenzo[h][1,6]naphthyridin-7-yl-5,5-d2)amino)-N-(methyl-d3)nicotinamide], the IC50 in experiment [1] was below 30 nM; in experiment [2], 30 to 300 nM; in experiment [7], above 1000 nM; in experiment [8] it was above 1000 nM.
Take `[2H]C([2H])([2H])NC(=O)c1nnc(NC(=O)C2CC2)cc1Nc1cccc2c1N(C)C([2H])([2H])c1ccc(C(F)(F)F)nc1-2` [Compound 26, 6-(cyclopropanecarboxamido)-N-(methyl-d3)-4-((6-methyl-2-(trifluoromethyl)-5,6-dihydrobenzo[h][1,6]naphthyridin-7-yl-5,5-d2)amino)pyridazine-3-carboxamide]: the IC50 in experiment [1] is 300 to 1000 nM; in experiment [2] it was above 1000 nM; in experiment [7] it was above 1000 nM; in experiment [8], 30 to 300 nM.
